According to patent publication US10640536B2, “Polymyxins, compositions, methods of making and methods of use” (XELLIA PHARMACEUTICALS APS, priority 2013, dated 2020):
In brackets after ≈: the same amount, converted by molar mass. Like-named read-outs stand apart in the source and are kept apart here.

Legend:
Assay type in all cases: cell-based
[1] = test system: Escherichia coli DSA443; experiment: MIC by broth dilution method according to EUCAST; details: Table 3, 35° C., 16-20 h
Description: (§1) The deca sulfomethylated polymyxins were tested for antibacterial activity by determining the minimal inhibitory concentration (MIC) by use of the broth dilution method according to EUCAST. […] indicator organism were used e.g. Acinetobacter baumannii colistin-sensitive, Klebsiella pneumonia #3010, Pseudomonas aeruginosa ATCC27853, Escherichia coli ATCC25922 and Escherichia coli DSA443. The tests were performed at, Statens Serum Institut, Copenhagen, Denmark department for Microbiology and Infection Control.
(§2) The concentration range used was 0.125-128 μg/mL. Gentamicin was included as a positive quality control. Preparation of Gentamicin: 1000 μg/mL stock solution: 0.125 ml of a 40 mg/mL solution of Hexamicin+4.875 mL sterile water. 128 μg/mL: 0.640 mL of “1000 μg/mL stock solution”+4.36 mL Müeller-Hinton broth (MHB).
(§3) Preparation of compounds disclosed herein: 5 mg/ml stock solution: one vial of 5 mg was added 1.0 mL sterile water. 512 μg/mL solution: 0.205 mL of “5 mg/mL stock solution”+1.795 mL MHB
Preparation of inoculum: Fresh overnight colonies from 5% horse blood agar plates were suspended to a turbidity of 0.5 McFarland and further diluted in Müeller-Hinton broth to 1×10^6 CFU/ml. A total of 50 μL diluted bacterial suspension (Müeller Hinton BBL II-broth, SSI) was added to wells containing 50 μL of two fold compounds described herein or gentamicin dilutions. […]

[2] = test system: Acinetobacter baumannii colistin-sensitive
Description: as §1, §2, §3
(§4) Preparation of inoculum: Fresh overnight colonies from 5% horse blood agar plates were suspended to a turbidity of 0.5 McFarland and further diluted in Müeller-Hinton broth to 1×10^6 CFU/ml. A total of 50 μL diluted bacterial suspension (Müeller Hinton BBL II-broth, SSI) was added to wells containing 50 μL of two fold compounds described herein or gentamicin dilutions. All compounds were tested in triplicate. The plates were incubated at 35° C., 16-20 h.

[3] = test system: Escherichia coli ATCC25922
Description: as §1, §2, §3, §4

[4] = test system: Klebsiella pneumonia #3010
Description: as §1, §2, §3, §4

[5] = test system: Pseudomonas aeruginosa ATCC27853
Description: as §1, §2, §3, §4

[6] = Table 3, broth dilution, 35° C., 16-20 h

Compound	MIC A. baumannii ColistinS ([2]; colistin-sensitive)	MIC E. coli ATCC 25922 ([3]; ATCC25922)	MIC K. pneumonia #3010 [4]	MIC P. aeruginosa ATCC 27853 ([5]; ATCC27853)	further results
Gentamicin [reference compound]	–	–	–	–	MIC E. coli DSA 443 [1]: >32 µg/mL; MIC A. baumannii ColistinS [2, 6]: >32 µg/mL; MIC E. coli ATCC 25922 [3, 6]: 1 µg/mL; MIC of positive control against quality control limit ([3]; limit 0.25-1 μg/mL for E. coli ATCC 25922): within the limit; MIC K. pneumonia #3010 [4, 6]: 0.125 µg/mL; MIC P. aeruginosa ATCC 27853 [5, 6]: 1 µg/mL; MIC of positive control against quality control limit ([5]; limit 0.5-2 μg/mL for P. aeruginosa ATCC27853): within the limit
CC[C@H](C)CCCCC(=O)N[C@@H](CCN(CS(=O)(=O)O)CS(=O)(=O)O)C(=O)N[C@H](C(=O)N[C@@H](CCN(CS(=O)(=O)O)CS(=O)(=O)O)C(=O)N[C@H]1CCNC(=O)[C@H]([C@@H](C)O)NC(=O)[C@H](CCN(CS(=O)(=O)O)CS(=O)(=O)O)NC(=O)[C@H](CCN(CS(=O)(=O)O)CS(=O)(=O)O)NC(=O)[C@H]([C@@H](C)CC)NC(=O)[C@@H](CC(C)C)NC(=O)[C@H](CCN(CS(=O)(=O)O)CS(=O)(=O)O)NC1=O)[C@@H](C)O [Example 3, Penta (Nγ-Bis-Sulfomethyl) DAB1,3,5,8,9 Polymyxin E1-i]	4 µg/mL (≈ 1.9 µM)	8 µg/mL (≈ 3.79 µM)	16 µg/mL (≈ 7.58 µM)	8 µg/mL (≈ 3.79 µM)	–
CC[C@H](C)CCCCC(=O)N[C@@H](CCN(CS(=O)(=O)O)CS(=O)(=O)O)C(=O)N[C@H](C(=O)N[C@@H](CCN(CS(=O)(=O)O)CS(=O)(=O)O)C(=O)N[C@H]1CCNC(=O)[C@H]([C@@H](C)O)NC(=O)[C@H](CCN(CS(=O)(=O)O)CS(=O)(=O)O)NC(=O)[C@H](CCN(CS(=O)(=O)O)CS(=O)(=O)O)NC(=O)[C@H](CC(C)C)NC(=O)[C@@H](CC(C)C)NC(=O)[C@H](CCN(CS(=O)(=O)O)CS(=O)(=O)O)NC1=O)[C@@H](C)O [Example 1, Penta (Nγ-Bis-Sulfomethyl) DAB1,3,5,8,9 Polymyxin E1]	4 µg/mL (≈ 1.9 µM)	8 µg/mL (≈ 3.79 µM)	16 µg/mL (≈ 7.58 µM)	8 µg/mL (≈ 3.79 µM)	–
CC[C@H](C)CCCCC(=O)N[C@@H](CCN(CS(=O)(=O)O)CS(=O)(=O)O)C(=O)N[C@H](C(=O)N[C@@H](CCN)C(=O)N[C@H]1CCNC(=O)[C@H]([C@@H](C)O)NC(=O)[C@H](CCN(CS(=O)(=O)O)CS(=O)(=O)O)NC(=O)[C@H](CCN)NC(=O)[C@H](CC(C)C)NC(=O)[C@@H](CC(C)C)NC(=O)[C@H](CCN(CS(=O)(=O)O)CS(=O)(=O)O)NC1=O)[C@@H](C)O [PE1-(SM)6^1,5, 9, Tri (Nγ-Bis-Sulfomethyl) DAB1,5,9 Polymyxin E1]	–	8 µg/mL (≈ 4.61 µM)	–	8 µg/mL (≈ 4.61 µM)	–
CC[C@H](C)CCCCC(=O)N[C@@H](CCN(CS(=O)(=O)O)CS(=O)(=O)O)C(=O)N[C@H](C(=O)N[C@@H](CCN)C(=O)N[C@H]1CCNC(=O)[C@H]([C@@H](C)O)NC(=O)[C@H](CCN(CS(=O)(=O)O)CS(=O)(=O)O)NC(=O)[C@H](CCN(CS(=O)(=O)O)CS(=O)(=O)O)NC(=O)[C@H](CC(C)C)NC(=O)[C@@H](CC(C)C)NC(=O)[C@H](CCN(CS(=O)(=O)O)CS(=O)(=O)O)NC1=O)[C@@H](C)O [PE1-(SM)8^1,5,8, 9, Tetra (Nγ-Bis-Sulfomethyl) DAB1,5,8,9 Polymyxin E1]	–	8 µg/mL (≈ 4.16 µM)	–	8 µg/mL (≈ 4.16 µM)	–
CC(C)CCCCC(=O)N[C@@H](CCN(CS(=O)(=O)O)CS(=O)(=O)O)C(=O)N[C@H](C(=O)N[C@@H](CCN(CS(=O)(=O)O)CS(=O)(=O)O)C(=O)N[C@H]1CCNC(=O)[C@H]([C@@H](C)O)NC(=O)[C@H](CCN(CS(=O)(=O)O)CS(=O)(=O)O)NC(=O)[C@H](CCN(CS(=O)(=O)O)CS(=O)(=O)O)NC(=O)[C@H](CC(C)C)NC(=O)[C@@H](CC(C)C)NC(=O)[C@H](CCN(CS(=O)(=O)O)CS(=O)(=O)O)NC1=O)[C@@H](C)O [Example 2, Penta (Nγ-Bis-Sulfomethyl) DAB1,3,5,8,9 Polymyxin E2]	4 µg/mL (≈ 1.91 µM)	8 µg/mL (≈ 3.82 µM)	16 µg/mL (≈ 7.63 µM)	8 µg/mL (≈ 3.82 µM)	–
